Assay results taken from patent US9034848B2, “Phenyl carbamate compounds for use in preventing or treating stroke” (Bio-Pharm Solutions Co., Ltd., priority 2011, dated 2015).

How the values were obtained:
Type in all cases: in vivo
SD rats [1] = assay: Permanent middle cerebral artery occlusion (pMCAO) model, TTC-stained infarct area; conditions: 60 mg/kg i.p. b.i.d.; for infraction areas compared with control (neuro-therapeutic): 1st inj. 0.25 hr after occlusion, 8 hr interval, occlusion 1, 3, 7 days
SD rats [2] = assay: Transient middle cerebral artery occlusion (tMCAO) model, TTC-stained infarct area; conditions: 2 hr occlusion, 24 hr reperfusion; for infraction areas compared with control (neuro-therapeutic): 60 mg/kg i.p. 15 minutes after occlusion; for infraction areas compared with control (neuro-prevention): 60 mg/kg i.p. 15 minutes before occlusion
Procedure: 1.1. Neuro-Prevention Study of Transient MCAO (tMCAO) Model
Male, SD rats weighing 290-300 g were purchased from Nara Bio Tech. (Pyoung-tek, Korea) Animals were maintained with laboratory animal food and water ad libitum in an animal facility with a 12 h light/dark cycle at a controlled temperature (23±2° C.) until used. All animal experiments were carried out in accordance with the Korean Academy of Medical Sciences Guide for Care and Use of Laboratory Animals.
The rats were anesthetized with isoflurane (Hana-phram., Korea) and anesthesia machine was set to 1.0 L/min N2O (Surgi-Vet, USA). Isoflurane and N2O gas ratio was 3:3 for induction anesthesia, and lower to 2:1 (isoflurane:N2O) to maintain anesthesia. Body temperature was monitored continuously by a rectal thermo meter probe and maintained at 37±0.5° C. by placing the animals on a heating pad (Jung-do B&P, Korea). The MCA (middle cerebral artery) occlusion was induced by the procedure of Longa et al. (1989) with minor modifications. Briefly, surgical nylon suture thread (4-0, Diameter: 0.39 mm, Coating length: 0.56 mm, Doccol suture, USA) with a round tip was advanced from the external carotid artery (ECA) into the lumen of the internal carotid artery (ICA) to occlude the origin of the MCA. The wound was closed, and the animals were allowed to home cage for recover.
Priority, the infraction areas when the compound of Example 1 was treated at various time points were measured for peak time when is the best efficacy time (see FIG. 1). And then, rats received 60 mg/kg dose of each compound of Examples 1, 65 and 67, intraperitoneally (i.p.) at 15 minutes before MCA occlusion (see FIG. 2, animal numbers of each compound of Examples 1 (n=8), 65 (n=5) and 67 (n=6)). All compounds were dissolved in 30% polyethylene glycol (Compound of Example 1) or 20% (w/v) Tween 80 (Compounds of Examples 65 and 67) once in volume of 4 ul/g bw. Control group (n=33) was identical to those in the MCA occlusion rats except for injection of vehicle (4 ul/g bw of 30% (w/v) polyethylene glycol or 20% (w/v) Tween 80, intraperitoneally (i.p.)). Two hours after MCA occlusion, reperfusion was accomplished by pulling the suture thread back to the bifurcation until the tip cleared the ICA.
The experimentation was identical performed as described in Experimental Example 1.1, except that each compound examples of 1, 65 and 67 was administered at 15 minutes after MCA occlusion (FIG. 3, animal numbers of each compound of Examples 1 (n=7), 65 (n=6) and 67 (n=5)), to test the therapeutic effect of the compounds. Control group (n=33) was identical to those in the MCA occlusion rats except for injection of vehicle (4 ul/g bw of 30% polyethylene glycol or 20% Tween 80, intraperitoneally (i.p.)).
After 24 hours of reperfusion, rats were anesthetized with isoflurane (Hana-phram., Korea). The brain was then quickly removed and cut into 2-mm thick coronal block slices in brain matrix. The slices were immersed in a 2% (w/v) solution of 2,3,5-triphenyltetrazolium chloride (TTC) in normal saline at 37° C. for 10 min and then fixed in 10% (v/v) formalin solution at room temperature for overnight. The TTC stained brain slices were photographed using a digital camera (5000D, Nikon, Japan). The size of infarct was calculated with an image analysis system (Image-Pro Plus 4.0, Media Cybernetics, USA) and measurement of infarct area were expressed as the percentage (% control) of infarct area in reference to the compared with ipsilateral hemisphere of control group (see FIGS. 2 and 3).
Statistical analysis results are presented as the mean±S.E.M. and measures analysis of variance was used for comparison of the results of hemispheric infarct area, obtained from 5˜33 rats in each group. Data were analyzed by either one-way analysis of variance (ANOVA) followed by Tukey's test for multiple comparisons. p values less than 0.05 were considered to be statistically significant (see FIGS. 1 and 4).

mice = assay: MES test (anti-excitotoxicity activity); conditions: Mus musculus, po, 4 mice, read-out: MES test(po) Protection %; for responders at 100 mg/kg: injection amount 100 mg/kg

| SMILES | infraction areas compared with control (neuro-therapeutic) (SD rats [1]) | infraction areas compared with control (neuro-therapeutic) (SD rats [2]) | infraction areas compared with control (neuro-prevention) (SD rats [2]) | responders at 100 mg/kg (mice) | further results |
| --- | --- | --- | --- | --- | --- |
| C[C@H](OC(N)=O)[C@@H](O)c1ccccc1Cl [Compound 1, 1-(2-chlorophenyl)-(S)-1-hydroxypropyl-(S)-2-carbamate] | significantly reduced | significantly reduced | significantly reduced |  | neuro-therapeutic effect, TTC-stained infarction area (SD rats [1]; 1st inj. 1 hr after occlusion, occlusion for 3 days): neuro-therapeutic effect |
| CCCC[C@H](OC(N)=O)[C@@H](O)c1ccccc1Cl [Compound 12, 1-(2-chlorophenyl)-(S)-1-hydroxyhexyl-(S)-2-carbamate] |  |  |  | 75% |  |
| CCCC[C@@H](OC(N)=O)[C@H](O)c1ccccc1Cl [Compound 13, 1-(2-chlorophenyl)-(R)-1-hydroxyhexyl-(R)-2-carbamate] |  |  |  |  | responders at 200 mg/kg (mice; injection amount 200 mg/kg): 75% |
| CCCC[C@H](OC(N)=O)[C@@H](O)c1ccc(Cl)cc1Cl [Compound 43, 1-(2,4-dichlorophenyl)-(S)-1-hydroxyhexyl-(S)-2-carbamate] |  |  |  | 25% |  |
| CCCC[C@H](OC(N)=O)[C@@H](O)c1c(Cl)cccc1Cl [Compound 44, 1-(2,6-dichlorophenyl)-(S)-1-hydroxyhexyl-(S)-2-carbamate] |  |  |  | 75% |  |
| C[C@H](OC(N)=O)[C@@H](O)c1ccccc1I [Compound 65, 1-(2-iodophenyl)-(S)-1-hydroxypropyl-(S)-2-carbamate] | neuro-therapeutic effects | significantly reduced | significantly reduced |  | responders at 50 mg/kg (mice; injection amount 50 mg/kg): 100% |
| CC[C@H](OC(N)=O)[C@@H](O)c1ccccc1I [Compound 67, 1-(2-iodophenyl)-(S)-1-hydroxybutyl-(S)-2-carbamate] | neuro-therapeutic effects | significantly reduced | significantly reduced | 100% |  |
